Measured values from US10500166B2, “Methods for the treatment of erectile dysfunction using fispemifene” (QUATRX PHARMACEUTICALS, priority 2007, dated 2019).

Columns and labels:
[1] = test system: FSH (follicle stimulating hormone); test: Example 3 study in hypogonadal men: serum FSH (ITT); assay type: in vivo, human; conditions: for FSH % Change from Baseline to Week 2, Max / FSH % Change from Baseline to Week 2, Mean ± SD / FSH % Change from Baseline to Week 2, Median / FSH % Change from Baseline to Week 2, Min / FSH % Change from Baseline to Week 4, Max / FSH % Change from Baseline to Week 4, Mean ± SD / FSH % Change from Baseline to Week 4, Median / FSH % Change from Baseline to Week 4, Min / FSH % Change from Baseline to Week 6, Max / FSH % Change from Baseline to Week 6, Mean ± SD / FSH % Change from Baseline to Week 6, Median / FSH % Change from Baseline to Week 6, Min: (Week minus Baseline) divided by Baseline, LOCF; for FSH % Change from Baseline to Week 2, Max / FSH % Change from Baseline to Week 2, Mean ± SD / FSH % Change from Baseline to Week 2, Median / FSH % Change from Baseline to Week 2, Min / FSH % Change from Baseline to Week 4, Max / FSH % Change from Baseline to Week 4, Mean ± SD / FSH % Change from Baseline to Week 4, Median / FSH % Change from Baseline to Week 4, Min / FSH % Change from Baseline to Week 6, Max / FSH % Change from Baseline to Week 6, Mean ± SD / FSH % Change from Baseline to Week 6, Median / FSH % Change from Baseline to Week 6, Min / FSH Actual Value at Baseline (Visit 2), Max / FSH Actual Value at Baseline (Visit 2), Mean ± SD / FSH Actual Value at Baseline (Visit 2), Median / FSH Actual Value at Baseline (Visit 2), Min: ITT
Method: (§1) A randomized, double-blind, placebo controlled, parallel-group study of once-daily doses of fispemifene (100, 200, and 300 mg/day) given for 4 weeks was conducted in a population of hypogonadal men. Subjects were required to meet all of the following inclusion criteria at screening and prior to randomization to be eligible for the study:
(§2) There were 77 subjects total. The number of subjects randomized to the 100 mg fispemifene, 200 mg fispemifene, 300 mg fispemifene, and placebo arms were 21, 21, 19, and 16, respectively.
(§3) Subjects were randomly assigned to one of four treatment groups in a 1:1:1:1 ratio: • Treatment A (100 mg): fispemifene 100 mg+placebo+placebo; • Treatment B (200 mg): fispemifene 100 mg+fispemifene 100 mg+placebo; • Treatment C (300 mg): fispemifene 100 mg+fispemifene 100 mg+fispemifene 100 mg; and • Treatment D (Placebo): placebo+placebo+placebo.
(§4) Subjects took one dose (three capsules) of study medication once a day at home for 4 weeks. Capsules were to be taken in the morning immediately after breakfast, with the exception of the morning of the Week 4 visit. Capsules were not to be taken on the morning of the Week 4 visit because trough plasma levels of fispemifene were determined by a blood sample taken at this visit. Each subject was randomly assigned to treatment with one of the 3 different dose regimens of fispemifene or placebo vehicle. Each subject received a 4 week supply of study drug.
(§5) Blood samples were taken from the subjects within 1 week prior to dosing with study drug to establish baseline values; after 2 and 4 weeks of randomization; and 2 weeks after the last dose of study drug. Serum was prepared from those samples and used to determine the mean % change from baseline in total testosterone, free testosterone, SHBG (sex hormone-binding globulin), DHT (dihydrotestosterone), E2 (estradiol), LH (luteinizing hormone), FSH (follicle stimulating hormone), and inhibin B.
(§6) 3. Percent change from baseline in SHBG, DHT, E2, LH, FSH, inhibin B, and testosterone/E2 ratio at Weeks 2, 4, and 6.

[2] = test system: inhibin B; test: Example 3 study in hypogonadal men: serum inhibin B (ITT); assay type: in vivo, human; conditions: for Inhibin B % Change from Baseline to Week 2, Max / Inhibin B % Change from Baseline to Week 2, Mean ± SD / Inhibin B % Change from Baseline to Week 2, Median / Inhibin B % Change from Baseline to Week 2, Min: Week 2, (Week minus Baseline) divided by Baseline; for Inhibin B % Change from Baseline to Week 2, Max / Inhibin B % Change from Baseline to Week 2, Mean ± SD / Inhibin B % Change from Baseline to Week 2, Median / Inhibin B % Change from Baseline to Week 2, Min / Inhibin B % Change from Baseline to Week 4, Max / Inhibin B % Change from Baseline to Week 4, Mean ± SD / Inhibin B % Change from Baseline to Week 4, Median / Inhibin B % Change from Baseline to Week 4, Min / Inhibin B % Change from Baseline to Week 6, Max / Inhibin B % Change from Baseline to Week 6, Mean ± SD / Inhibin B % Change from Baseline to Week 6, Median / Inhibin B % Change from Baseline to Week 6, Min: LOCF; for Inhibin B % Change from Baseline to Week 4, Max / Inhibin B % Change from Baseline to Week 4, Mean ± SD / Inhibin B % Change from Baseline to Week 4, Median / Inhibin B % Change from Baseline to Week 4, Min: Week 4, (Week minus Baseline) divided by Baseline; for Inhibin B % Change from Baseline to Week 6, Max / Inhibin B % Change from Baseline to Week 6, Mean ± SD / Inhibin B % Change from Baseline to Week 6, Median / Inhibin B % Change from Baseline to Week 6, Min: Week 6, (Week minus Baseline) divided by Baseline
Method: as §1, §2, §3, §4, §5, §6

## OCCOCCOc1ccc(/C(=C(/CCCl)c2ccccc2)c2ccccc2)cc1 [Fispemifene, (Z)-2-{2-[4-(4-Chloro-1,2-diphenylbut-1-enyl)phenoxy]ethoxy}ethanol]
[1]; 100 mg
  FSH % Change from Baseline to Week 2, Max: 0.76
  FSH % Change from Baseline to Week 2, Mean ± SD: 0.29 ± 0.222
  FSH % Change from Baseline to Week 2, Median: 0.27
  FSH % Change from Baseline to Week 2, Min: −0.13
  FSH % Change from Baseline to Week 4, Max: 1.12
  FSH % Change from Baseline to Week 4, Mean ± SD: 0.28 ± 0.296
  FSH % Change from Baseline to Week 4, Median: 0.24
  FSH % Change from Baseline to Week 4, Min: −0.09
  FSH % Change from Baseline to Week 6, Max: 0.610
  FSH % Change from Baseline to Week 6, Mean ± SD: 0.043 ± 0.2302
  FSH % Change from Baseline to Week 6, Median: 0.000
  FSH % Change from Baseline to Week 6, Min: −0.345
  FSH Actual Value at Baseline (Visit 2), Max: 14.90 IU/L
  FSH Actual Value at Baseline (Visit 2), Mean ± SD: 649 ± 3.738 IU/L
  FSH Actual Value at Baseline (Visit 2), Median: 5.00 IU/L
[1]; 200 mg
  FSH % Change from Baseline to Week 2, Max: 0.60
  FSH % Change from Baseline to Week 2, Mean ± SD: 0.33 ± 0.147
  FSH % Change from Baseline to Week 2, Median: 0.28
  FSH % Change from Baseline to Week 2, Min: 0.03
  FSH % Change from Baseline to Week 4, Max: 0.58
  FSH % Change from Baseline to Week 4, Mean ± SD: 0.32 ± 0.157
  FSH % Change from Baseline to Week 4, Median: 0.33
  FSH % Change from Baseline to Week 4, Min: 0.02
  FSH % Change from Baseline to Week 6, Max: 0.442
  FSH % Change from Baseline to Week 6, Mean ± SD: 0.050 ± 0.1657
  FSH % Change from Baseline to Week 6, Median: 0.022
  FSH % Change from Baseline to Week 6, Min: −0.167
  FSH Actual Value at Baseline (Visit 2), Max: 14.20 IU/L
  FSH Actual Value at Baseline (Visit 2), Mean ± SD: 5.91 ± 3.054 IU/L
  FSH Actual Value at Baseline (Visit 2), Median: 5.20 IU/L
  FSH Actual Value at Baseline (Visit 2), Min: 2.40 IU/L
[1]; 300 mg
  FSH % Change from Baseline to Week 2, Max: 0.78
  FSH % Change from Baseline to Week 2, Mean ± SD: 0.36 ± 0.233
  FSH % Change from Baseline to Week 2, Median: 0.31
  FSH % Change from Baseline to Week 2, Min: −0.21
  FSH % Change from Baseline to Week 4, Max: 0.60
  FSH % Change from Baseline to Week 4, Mean ± SD: 0.29 ± 0.206
  FSH % Change from Baseline to Week 4, Median: 0.28
  FSH % Change from Baseline to Week 4, Min: −0.24
  FSH % Change from Baseline to Week 6, Max: 0.395
  FSH % Change from Baseline to Week 6, Mean ± SD: −0.010 ± 0.1786
  FSH % Change from Baseline to Week 6, Median: −0.043
  FSH % Change from Baseline to Week 6, Min: −0.255
  FSH Actual Value at Baseline (Visit 2), Max: 12.30 IU/L
  FSH Actual Value at Baseline (Visit 2), Mean ± SD: 5.08 ± 2.931 IU/L
  FSH Actual Value at Baseline (Visit 2), Median: 4.10 IU/L
  FSH Actual Value at Baseline (Visit 2), Min: 1.80 IU/L
[1]; hypogonadal men, 100-300 mg/day for 4 weeks
  effect on serum FSH levels: increased
[2]; 100 mg
  Inhibin B % Change from Baseline to Week 2, Max: 1.64
  Inhibin B % Change from Baseline to Week 2, Mean ± SD: 0.24 ± 0.493
  Inhibin B % Change from Baseline to Week 2, Median: 0.17
  Inhibin B % Change from Baseline to Week 2, Min: −0.44
  Inhibin B % Change from Baseline to Week 4, Max: 1.86
  Inhibin B % Change from Baseline to Week 4, Mean ± SD: 0.30 ± 0.631
  Inhibin B % Change from Baseline to Week 4, Median: 0.09
  Inhibin B % Change from Baseline to Week 4, Min: −0.61
  Inhibin B % Change from Baseline to Week 6, Max: 1.40
  Inhibin B % Change from Baseline to Week 6, Mean ± SD: 0.41 ± 0.572
  Inhibin B % Change from Baseline to Week 6, Median: 0.29
  Inhibin B % Change from Baseline to Week 6, Min: −0.41
  Inhibin B Actual Value at Baseline (Visit 2), Max: 191.0 pg/mL
  Inhibin B Actual Value at Baseline (Visit 2), Mean ± SD: 95.1 ± 46.32 pg/mL
  Inhibin B Actual Value at Baseline (Visit 2), Median: 89.0 pg/mL
  Inhibin B Actual Value at Baseline (Visit 2), Min: 22.0 pg/mL
[2]; 200 mg
  Inhibin B % Change from Baseline to Week 2, Max: 1.48
  Inhibin B % Change from Baseline to Week 2, Mean ± SD: 039 ± 0.534
  Inhibin B % Change from Baseline to Week 2, Median: 0.21
  Inhibin B % Change from Baseline to Week 2, Min: −0.22
  Inhibin B % Change from Baseline to Week 4, Max: 3.40
  Inhibin B % Change from Baseline to Week 4, Mean ± SD: 0.42 ± 0.862
  Inhibin B % Change from Baseline to Week 4, Median: 0.12
  Inhibin B % Change from Baseline to Week 4, Min: −0.44
  Inhibin B % Change from Baseline to Week 6, Max: 2.00
  Inhibin B % Change from Baseline to Week 6, Mean ± SD: 0.40 ± 0.628
  Inhibin B % Change from Baseline to Week 6, Median: 0.22
  Inhibin B % Change from Baseline to Week 6, Min: −0.34
  Inhibin B Actual Value at Baseline (Visit 2), Max: 220.0 pg/mL
  Inhibin B Actual Value at Baseline (Visit 2), Mean ± SD: 105.6 ± 59.43 pg/mL
  Inhibin B Actual Value at Baseline (Visit 2), Median: 95.0 pg/mL
  Inhibin B Actual Value at Baseline (Visit 2), Min: 16.0 pg/mL
[2]; 300 mg
  Inhibin B % Change from Baseline to Week 2, Max: 0.97
  Inhibin B % Change from Baseline to Week 2, Mean ± SD: 0.12 ± 0.400
  Inhibin B % Change from Baseline to Week 2, Median: 0.05
  Inhibin B % Change from Baseline to Week 2, Min: −0.42
  Inhibin B % Change from Baseline to Week 4, Max: 0.878
  Inhibin B % Change from Baseline to Week 4, Mean ± SD: 0.016 ± 0.2904
  Inhibin B % Change from Baseline to Week 4, Median: −0.012
  Inhibin B % Change from Baseline to Week 4, Min: −0.459
  Inhibin B % Change from Baseline to Week 6, Max: 0.645
  Inhibin B % Change from Baseline to Week 6, Mean ± SD: 0.004 ± 0.3349
  Inhibin B % Change from Baseline to Week 6, Median: −0.057
  Inhibin B % Change from Baseline to Week 6, Min: −0.493
  Inhibin B Actual Value at Baseline (Visit 2), Max: 334.0 pg/mL
  Inhibin B Actual Value at Baseline (Visit 2), Mean ± SD: 127.3 ± 75.76 pg/mL
  Inhibin B Actual Value at Baseline (Visit 2), Median: 128.0 pg/mL
  Inhibin B Actual Value at Baseline (Visit 2), Min: 16.0 pg/mL
